From a melting point compilation (Tetko et al.; mined from patent text by program, amines drawn as free bases though some values may be those of a salt)

Row | SMILES | melting point [°C]
1 | O=C(Oc1ccc(F)cc1)[C@H]1CC[C@H](C(F)(F)C(F)(F)C(F)(F)C(F)(F)C(F)(F)C(F)(F)C(F)(F)F)CC1 | 93.6
2 | CNC(=O)c1ccc(C=CC(=O)O)cc1 | 273
3 | O=C(NC1CCC(OC(=O)N2CCC3(CCCC3)CC2)CC1)C1CCN(C(=O)Oc2ccc(Oc3ccccc3)cc2)CC1 (stereo not drawn) | 230 to 231
4 | N#Cc1ccc(N2C(=O)[C@H]3C(O)C(O)CN3C2=O)c2ccccc12 (stereo partly drawn) | 225
5 | CC(C)C[C@@H](C#N)NC(=O)[C@@H]1CCCC[C@@H]1NC(=O)c1ccc(-n2cncn2)cc1 | 156 to 159
6 | CCOCCOCCOCCOc1cc(OCCCCCCCCCCCCOc2ccccc2)cc(N(CC(=O)O)CC(=O)O)c1 | 58 to 61
7 | O=C(O)c1cc(Cl)c(F)c(F)c1F | 123 to 124
8 | O=C1NC(=O)C2(CCc3cc(F)ccc32)N1 (racemic) | > 260
9 | O=C(Nc1ccc(C(F)(F)F)cc1)N1CC2CCc3cc(Cl)ccc3C2=N1 (stereo not drawn) | 196 to 199
10 | COc1ccc2c(c1)c(C1CCN(Cc3cccc(C(=O)O)c3)CC1)cn2CCc1ccsc1 | 217 to 218
11 | CC(=O)On1c(=O)c(=O)[nH]c2cc(C(F)(F)F)c(C#N)cc21 | 230
12 | COc1nc(N)nc2c1CCO2 | 172 to 177
13 | N#Cc1cc(Cl)ccc1NC(=O)C(F)(F)F | 105 to 107
14 | COc1ncnc(OC)c1[N+](=O)[O-] | 168 to 170
15 | O=C(O)CCCOc1cc(C(F)(F)F)cc(C(F)(F)F)c1 | 85 to 87
16 | CC(=O)c1cn2c3c(cccc13)CCC2 | 106 to 108

Row | SMILES | melting point [°C]
17 | O=[N+]([O-])c1ccc(-c2nsc(Cl)n2)cc1 | 143 to 145
18 | CC1(c2cc(/C=C/c3ccc(C(=O)O)cc3)ccc2O)CCCCC1 | 229
19 | CCOC(=O)Nc1ccc(C2CCN(C(=O)OCC)CC2)cc1 | 105 to 107
20 | Nc1c(Br)cc(Br)cc1S(N)(=O)=O | 165 to 169
21 | NS(=O)(=O)c1ccc(N2CC(=O)N(c3ccccc3)C2=O)cc1 | 255 to 257
22 | COc1ccc(Cn2cc(C(=O)C(=O)NC3=CC(=O)OC3)c3ccccc32)cc1 | 265 to 267
23 | CC(C)n1nc(OS(=O)(=O)C(F)(F)F)ccc1=O | 45 to 46
24 | O=C(Nc1ccccc1)Nc1nc(=O)n(S(=O)(=O)c2ccccc2)cc1F | 210 to 214
25 | O=C1c2ccccc2OCC1C(=O)C(F)(F)F (stereo not drawn) | 81 to 83
26 | O=C=Nc1c2c(cc3c1CCC3)CCC2 | 40 to 41
27 | O=[N+]([O-])c1cc(F)c(N2CCC3(CC2)CO3)c(F)c1 | 96 to 97
28 | CC(=O)Oc1ccc2c(c1)CCC1C2C(O)CC2(C)C(=O)CCC12 (stereo not drawn) | 180 to 182
29 | O=C1/C(=C(\NC2CC2)c2ccccc2)Sc2ccccc21 | 131 to 132
30 | Cc1nc(N2CCc3ccccc3CC2)c(C#N)c(=O)n1CC(F)(F)F | 108 to 110
31 | CC(O)(c1ccccc1)c1cc(C2CCCCC2)ccc1O (stereo not drawn) | 119

The remaining lines, values ahead:

Row | melting point [°C] | SMILES
32 | 69.5 | CCCCC1Oc2ccc(Cl)cc2N(CC(O)CO)C1=O (stereo not drawn)
33 | 40 to 41 | COc1ccc(C(=O)CCCCCBr)cc1
34 | 101 to 102 | CC(=O)Nc1ccc(S(=O)(=O)Nc2nnc(CO)s2)cc1
35 | 150 to 155 | CCCCCCn1c(CN2CCC[C@H]2C(=O)O)nc2cc(-c3ccccc3-c3nn[nH]n3)ccc21
36 | 125 to 128 | CONC(=N)c1ccc(-c2cc3ncn([C@H](C)[C@](O)(Cn4cncn4)c4ccc(F)cc4F)c(=O)c3s2)cc1
37 | 173 to 175 | COc1cc2c(c3c1OC(C)(C)C3)C(c1ccncc1)=NC(C)(C)C2
38 | 217 to 218 | COc1ccc(F)c(F)c1C(=O)c1cnc(NC2CCN(S(N)(=O)=O)CC2)nc1N
39 | 99 | CCCCc1nc(CO)c(C(=O)OC)n1Cc1ccc(-c2ccccc2C(=O)OC(C)(C)C)cc1
40 | 182 to 184 | Cc1cc2c(c3ccc(=O)[nH]c13)OC(CSCCN)C2 (stereo not drawn)
41 | 141 to 142 | COC(=O)C=Cc1cnc(SC)nc1NCc1ccc(OC)c(Cl)c1
42 | 113 to 114 | CNC(=O)n1nc(Oc2c(Cl)cc(C(F)(F)F)cc2Cl)cc1C
43 | 83 to 85 | Clc1cccc(Oc2nccnc2Cl)c1
44 | 206 to 210 | O=C(O)Cc1c(C(=O)c2ccccc2)[nH]c2cc(Cl)c(Cl)cc12
45 | 230 to 232 | Cc1nc2c(c(N)c1C(=O)O)c1ccccc1n2C
46 | 139 to 141 | COC(=O)c1nc(-c2ccc(Cl)c(F)c2F)nc(N)c1/C=C/[Si](C)(C)C
47 | 284 to 286 | COc1cc(C(=O)CC(=O)c2ccc(O)cc2O)cc(OC)c1OC
48 | 113 | Cc1c(OC(=O)c2ccccc2)ccc2c1OC(C)(C)CC2=O
49 | 216 | COC(=O)c1cc(C(=O)c2c(C)c(OC)c3ccc(O)cn23)ccc1N
50 | 185 to 186 | Cc1cc(-c2[nH]c3ccc(C#N)cc3c2C)cc(C)c1O
51 | 71 to 72 | CC(=O)OCc1ccc(-c2ccccc2)cn1
52 | 65 to 71 | COc1ccc([N+](=O)[O-])c2c1C(=O)CCC2

Row | melting point [°C] | SMILES
53 | 176 to 178 | CN(C)c1cc(-c2ccnc(Nc3cccc(Cl)c3)n2)ccn1
54 | 264 to 265 | Cc1cc(Nc2cccc(O)c2)c2c(cnn2C)n1
55 | 164 to 165 | CCOC(=O)Cc1ccc(NC(=O)C(COc2cccc(Cl)c2)NS(=O)(=O)c2ccc(F)cc2)cc1 (racemic)
56 | 63 to 64 | CCOC(=O)C(Cc1ccc(OCc2ccccc2)cc1)Oc1ccc(Cl)cc1 (stereo not drawn)
57 | 105 to 110 | CCc1nc2cc(S(C)(=O)=O)c(Cl)cc2n1-c1ccc(CCOC(=O)NS(=O)(=O)c2ccc(C)cc2)cc1
58 | 49 to 52 | CCOC(=O)Cc1ccc(OCc2ccc3c(c2)OCO3)cc1
59 | 170 to 171 | CCCCc1cn(CCCC)c(=O)n1Cc1ccc(-c2ccccc2-c2nnn[nH]2)nc1
60 | 99 to 101 | CSC(=C[N+](=O)[O-])NCC(O)c1cccc(C)c1 (stereo not drawn)
61 | 125 to 126 | COC(=O)N(C)C1CN(C(=O)Nc2ccc(OC(F)(F)F)cc2)N=C1c1ccc(OC(F)F)cc1 (stereo not drawn)
62 | 107 to 109 | CCOC(=O)c1cnc2nn(C)cc2c1OC(C)C
63 | 287 | COc1cc(C(=O)c2c(C)c(OC)c3ccc(C(=O)O)cn23)ccc1[N+](=O)[O-]
64 | 125 to 128 | CCn1c(=O)n(CC)c2cc3c(N4CCN(C(=O)Nc5ccc(Oc6ccccc6)cc5)CC4)nncc3cc21
65 | 80 to 81 | CCCCC(O)CN1N=CCCC1c1ccc(Cl)c(Cl)c1 (stereo not drawn)
66 | 163 | CCOC(=O)c1ccc2c(c1)N(C(=O)C(C)Br)c1ccccc1C=C2 (stereo not drawn)
67 | 119 to 122 | COc1ccc(CN2CCc3cc(O)ccc3C2)cc1OC
68 | 158 to 160 | CC1Cc2c(c(Cl)cc(F)c2N2C(=O)c3ccccc3C2=O)O1 (stereo not drawn)
69 | 157 | O=C(CSc1ncc(-c2ccccc2)cn1)NC1CCN(Cc2ccc(Cl)c(Cl)c2)CC1
70 | 55 to 60 | CCOC(=O)CC(=O)c1cc(C#N)ccc1F
71 | 101 to 102 | Cn1nc(C(F)(F)F)cc1Oc1ccnc(-c2ccc(F)cc2)n1
72 | 192 to 193 | CCc1nc2cc(OC)c(OC)cc2c(-c2ccc(OC)c(OC)c2)c1CO
73 | 234 to 236 | CCCCN(NC(=O)c1ccccc1)C(=O)c1ccc(Cl)c(Cl)c1
